We go through six compounds from patent publication US20210236529A1, “MULTI-TARGETED COMPOSITIONS FOR MITIGATING ACUTE RESPIRATORY DISTRESS SYNDROME” (priority 2020, published 2021).

In assay [1] the test system is IL-8. The experiment in a line: IL-8 in conditioned medium of 3D ciliated airway tissues, sandwich ELISA. Type of assay: cell-based, human. The settings on record: LPS 1 μg/ml, 72 h total contact. The method, then: (§1) A second study was undertaken to assess the ability of the select hydrolysable tannins to inhibit select pro-inflammatory interleukins, namely IL-6 and IL-8. The study was conducted using reconstituted human ciliated airway tissue. Specifically, Ninety Six 3D ciliated airway tissues (cat. #34839) were obtained from Mattek (Ashland, Mass.) and were cultured in Assay Media (cat. #031921JRD, MatTek). The tissue samples were rinsed twice before incubation with the MTT reagents. The test materials themselves were solubilized and diluted in sterile distilled water and added to the feeder chamber medium contacting the basal side of the tissues on Day 1. The test material was also applied topically on Day 2 together with LPS (added where indicated at 1 μg/ml, from Escherichia coli 0113, Cayman Chemical Company, Ann Arbor, Mich.) for total contact time of 72 h. The experiments were tested in triplicates or duplicates.
(§2) Following the exposures to the test materials, 1L-6 and IL-8 were quantified in the tissue culture—conditioned medium by sandwich ELISA (Table 4A and 4B). The effect of the test materials on mitochondrial metabolism was measured by the MTT assay, which quantifies the activity of mitochondrial dehydrogenases, such as succinate dehydrogenase, implicated in the respiratory electron transport chain in mitochondria. The MTT conversion values were also used to standardize the IL-6, IL-8 output data to tissue viability.
For orientation: An ELISA detects its analyte on a solid surface through an enzyme-linked reagent.

Assay [2] deals with SARS-CoV-2 RNA Polymerase (RdRp) (Severe acute respiratory syndrome coronavirus 2, UniProt P0DTD1). The experiment in a line: SARS-CoV-2 RNA Polymerase (RdRp) Assay Kit, fluorescent enzymatic activity in vitro. It counts as biochemical. The settings on record: for RdRp activity, % of Control: vs water control; for inhibition of SARS-CoV-2 RNA replication (in words): summary of Tables 1 and 2.

Assay [3] has as its system IL-6. The experiment in a line: IL-6 in conditioned medium of 3D ciliated airway tissues, sandwich ELISA. The settings on record: LPS 1 μg/ml, 72 h total contact. It counts as cell-based, human. On the procedure:
as §1, §2

Assay [4] relates to Covid-19 patients. The settings on record: after treatment; preliminary findings, 21 patients; cited from earlier work.
Setting [5] is: 10 μg/ml, standardized to MTT viability.
The mark [6] stands for this setting: 100 μg test material (0.209-0.213 μM).
The mark [7] stands for this setting: 10 μgm/ml, standardized to MTT viability.

A value given as a limit tells only on which side of the number the result lay.

On to `O=C(O)C[C@@H]1C(=O)O[C@H]2[C@@H]3OC(=O)c4cc(O)c(O)c(O)c4-c4c(cc(O)c(O)c4O)C(=O)OC[C@H]2O[C@@H](OC(=O)c2cc(O)c(O)c(O)c2)[C@@H]3OC(=O)c2cc(O)c(O)c3c2[C@H]1[C@H](O)C(=O)O3` [Chebulagic acid], for which the entries for the “IL-8, % of Control” value in assay [1] (setting [5]), in assay [1] (50 μg/ml) and in assay [1] (200 μg/ml) were 112 % of Control, 100 % of Control and 66 % of Control, respectively. For the same compound, the results for the “RdRp activity, % of Control” value in assay [2] (10 μg test material), in assay [2] (50 μg test material) and in assay [2] (setting [6]) were 35 % of Control, 10 % of Control and 8 % of Control, respectively. Further, the “inhibition of SARS-CoV-2 RNA replication (in words)” value (from here on “inhibition”) in assay [2] is on record as “marked inhibition”. Also, the “IL-6, % of Control” value in assay [3] (setting [7]) was 70 % of Control; in assay [3] (50 μgm/ml), 40 % of Control; in assay [3] (200 μgm/ml) it was 5 % of Control.

With `O=C(O)C[C@H](C(=O)O)[C@H]1c2c(cc(O)c(O)c2O)C(=O)O[C@@H]1C(=O)O` [Chebulic acid, reference compound], the “IL-8, % of Control” value in assay [1] (setting [5]) is listed as 96 % of Control; in assay [1] (50 μg/ml), 108 % of Control; in assay [1] (100 μg/ml) it was 111 % of Control. Also, the “RdRp activity, % of Control” value in assay [2] (10 μg test material) is 105 % of Control; in assay [2] (50 μg test material) it was 96 % of Control. In assay [2], the “inhibition” value is “neither Lopinavir, a commercial inhibitor of viral RNA replication, nor chebulic acid manifested effective inhibition”. Further, the “IL-6, % of Control” value in assay [3] (setting [7]) is listed as 68 % of Control; in assay [3] (50 μgm/ml) it was 106 % of Control; in assay [3] (100 μgm/ml) it was 78 % of Control.

Take `O=C(O)C[C@H]1C(=O)O[C@H]2[C@H](OC(=O)c3cc(O)c(O)c(O)c3)[C@@H](OC(=O)c3cc(O)c(O)c4c3[C@H]1[C@H](O)C(=O)O4)[C@H](OC(=O)c1cc(O)c(O)c(O)c1)O[C@@H]2COC(=O)c1cc(O)c(O)c(O)c1` [Chebulinic acid]: the “IL-8, % of Control” value in assay [1] (setting [5]) was 114 % of Control; in assay [1] (50 μg/ml) it was 109 % of Control; in assay [1] (200 μg/ml) it was 101 % of Control. Further, the “RdRp activity, % of Control” value is recorded as 25 % of Control in assay [2] (10 μg test material), 14 % of Control in assay [2] (50 μg test material) and 7 % of Control in assay [2] (setting [6]). The “inhibition” value in assay [2] is reported as “marked inhibition”. The “IL-6, % of Control” value was 131 % of Control in assay [3] (setting [7]), 96 % of Control in assay [3] (50 μgm/ml) and 18 % of Control in assay [3] (200 μgm/ml).

In general, EC50 refers to the concentration giving half of the maximal effect. For `Cc1cccc(C)c1OCC(=O)N[C@@H](Cc1ccccc1)[C@@H](O)C[C@H](Cc1ccccc1)NC(=O)[C@H](C(C)C)N1CCCNC1=O` [Lopinavir, reference compound], the “IL-8, % of Control” value in assay [1] (10 μM) was 103 % of Control; in assay [1] (50 μM), 104 % of Control. Moreover, in assay [2], the EC50 was > 50 µM. Besides, the “RdRp activity, % of Control” value is reported as 91 % of Control in assay [2] (10 μM) and 80 % of Control in assay [2] (50 μM). Also, the “inhibition” value in assay [2] is listed as “neither Lopinavir, a commercial inhibitor of viral RNA replication, nor chebulic acid manifested effective inhibition”. Also, the “IL-6, % of Control” value is on record as 73 % of Control in assay [3] (10 μM) and 81 % of Control in assay [3] (50 μM).

Turning to `O=C(OC[C@H]1O[C@@H](OC(=O)c2cc(O)c(O)c(O)c2)[C@H](OC(=O)c2cc(O)c(O)c(O)c2)[C@@H](OC(=O)c2cc(O)c(O)c(O)c2)[C@@H]1OC(=O)c1cc(O)c(O)c(O)c1)c1cc(O)c(O)c(O)c1` [Pentagallolyl glucose, Pentagalloyl glucose], the figures for the “IL-8, % of Control” value in assay [1] (setting [5]), in assay [1] (50 μg/ml) and in assay [1] (200 μg/ml) were 100 % of Control, 104 % of Control and 0 % of Control, respectively. In addition, the “RdRp activity, % of Control” value in assay [2] (10 μg test material) is 32 % of Control; in assay [2] (50 μg test material) it was 12 % of Control; in assay [2] (setting [6]), 4 % of Control. In assay [2], the “inhibition” value is reported as “marked inhibition”. For the same compound, the “IL-6, % of Control” value in assay [3] (setting [7]) is 91 % of Control; in assay [3] (50 μgm/ml) it was 64 % of Control; in assay [3] (200 μgm/ml) it was 0 % of Control.

In the case of “Actemra: a humanized anti-IL-6R monoclonal antibody”, the “patients experiencing a reduced need for supplemental oxygen” value in assay [4] is reported as 75%.
